# In patent US11524938B2, “Aromatic sulfonamide derivatives” (Bayer Pharma Aktiengesellschaft, priority 2016, dated 2022):
# Target: T1, human P2X4 (Homo sapiens, UniProt Q99571)
# T1 sequence (Q99571 1-388): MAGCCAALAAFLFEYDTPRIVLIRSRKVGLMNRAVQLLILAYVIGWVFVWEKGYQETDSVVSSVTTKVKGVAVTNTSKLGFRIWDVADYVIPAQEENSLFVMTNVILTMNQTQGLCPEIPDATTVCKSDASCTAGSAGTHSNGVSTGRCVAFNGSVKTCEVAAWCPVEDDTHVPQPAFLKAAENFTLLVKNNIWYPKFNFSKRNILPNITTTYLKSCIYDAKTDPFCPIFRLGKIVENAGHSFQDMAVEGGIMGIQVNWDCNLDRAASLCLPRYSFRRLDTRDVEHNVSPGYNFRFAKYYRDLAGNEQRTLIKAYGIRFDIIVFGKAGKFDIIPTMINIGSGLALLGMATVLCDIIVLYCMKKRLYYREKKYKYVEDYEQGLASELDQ
# Test: Human P2X4 HEK Cell FLIPR Assay
# Assay type: cell-based
# Details: agonist Bz-ATP at EC80; for Emax: HEK293, HEK293 cells, read-out: Human P2X4 HEK Cells (FLIPR Assay) avg Efficacy [%]; for Emax / Human P2X4 HEK Cells (FLIPR Assay) avg Efficacy [%]: percentage of maximal inhibition; for IC50 / Human P2X4 HEK Cells (FLIPR Assay) avg Efficacy [%]: HEK293 cells; for IC50: individual values listed where some fall outside detection range
# Description: HEK293 cells stably expressing human P2X4 were plated in poly-D-lysine-coated 384-well plates at a seeding density of 30000 cells/well and incubated overnight. P2X4 function was assessed by measuring intracellular calcium changes using the calcium-chelating dye Fluo8-AM (Molecular Devices) on a fluorescent imaging plate reader (FLEX/FLIPR station; Molecular Devices). On the day of the assay, the medium was removed and the cells were incubated for 30 min at 37° C. and 5% CO2 in 30 μL of dye buffer (Hank's balanced salt solution, 10 mM HEPES, 1.8 mM CaCl2, 1 mM MgCl2, 2 mM probenecid, 5 mM D-glucose monohydrate, 5 μM Fluo8-AM, pH=7.4). Compounds diluted in probenecid buffer (Hank's balanced salt solution, 10 mM HEPES, 1.8 mM CaCl2, 1 mM MgCl2, 2 mM probenecid, 5 mM D-glucose monohydrate, pH=7.4) were added in a volume of 10 μL and allowed to incubate for 30 min at room temperature. The final assay DMSO concentration was 0.5%. The agonist, Bz-ATP (Tocris), was added in a volume of 10 μL at a concentration representing the EC80 value. The EC80 value of Bz-ATP was determined each assay day prior to compound profiling. The fluorescence was measured for an interval of 120 sec at 2 sec intervals. The excitation and emission wavelengths used to monitor fluorescence were 470-495 nm and 515-575 nm, respectively. The data was analyzed based on the increase in peak relative fluorescence units (RFU) compared to the basal fluorescence and the data was normalized to the agonist control. The compounds were tested in triplicates per plate and mean values were plotted in Excel XLFit to determine IC50 values, percentage of maximal inhibition and the Hill coefficients.
structure (smiles),measurement,value
"CC(C(=O)Nc1cnn(-c2ccc(NC(=O)Cc3ccccc3Cl)cc2S(N)(=O)=O)c1)C(F)(F)F (racemic) [Example 508, N-[1-(4-{[(2-Chlorophenyl)acetyl]amino}-2-sulfamoylphenyl)-1H-pyrazol-4-yl]-3,3,3-trifluoro-2-methylpropanamide]",Emax,63%
same,IC50,172 nM
"CC(C(=O)Nc1cnn(-c2ccc(NC(=O)Cc3ccccc3Cl)cc2S(N)(=O)=O)c1)C(F)(F)F (single isomer, unassigned) [Example 509, N-[1-(4-{[(2-Chlorophenyl)acetyl]amino}-2-sulfamoylphenyl)-1H-pyrazol-4-yl]-3,3,3-trifluoro-2-methylpropanamide]",Emax,71%
same,IC50,326 nM
"CC(C(=O)Nc1cnn(-c2ccc(NC(=O)Cc3ccccc3Cl)cc2S(N)(=O)=O)c1)C(F)(F)F (single isomer, unassigned) [Example 510, N-[1-(4-{[(2-Chlorophenyl)acetyl]amino}-2-sulfamoylphenyl)-1H-pyrazol-4-yl]-3,3,3-trifluoro-2-methylpropanamide]",IC50,439 nM
same,Human P2X4 HEK Cells (FLIPR Assay) avg Efficacy [%],73%
"C[C@H]1CC[C@H](C)N1c1cnn(-c2ccc(NC(=O)Cc3ccccc3Cl)cc2S(N)(=O)=O)c1 (single isomer, unassigned) [Example 512, 2-(2-Chlorophenyl)-N-(4-{4-[(trans)-2,5-dimethylpyrrolidin-1-yl]-1H-pyrazol-1-yl}-3-sulfamoylphenyl)acetamide]",Emax,76%
same,IC50,4250 nM
"C[C@H]1CC[C@H](C)N1c1cnn(-c2ccc(NC(=O)Cc3ccccc3Cl)cc2S(N)(=O)=O)c1 (single isomer, unassigned) [Example 513, 2-(2-Chlorophenyl)-N-(4-{4-[(trans)-2,5-dimethylpyrrolidin-1-yl]-1H-pyrazol-1-yl}-3-sulfamoylphenyl)acetamide]",IC50,893 nM
same,Human P2X4 HEK Cells (FLIPR Assay) avg Efficacy [%],94%
"NS(=O)(=O)c1cc(NC(=O)Cc2ccccc2Cl)ccc1-n1ccc(Cl)cc1=O [Example 2, N-[4-(4-Chloro-2-oxopyridin-1(2H)-yl)-3-sulfamoylphenyl]-2-(2-chlorophenyl)-acetamide]",Emax,50%
same,IC50,19400 nM
"NS(=O)(=O)c1cc(NC(=O)Cc2ccccc2Cl)ccc1-n1cc(Cl)cc(Cl)c1=O [Example 3, 2-(2-Chlorophenyl)-N-[4-(3,5-dichloro-2-oxopyridin-1(2H)-yl)-3-sulfamoylphenyl]-acetamide]",Emax,76%
same,IC50,942 nM
"NS(=O)(=O)c1cc(NC(=O)Cc2ccccc2Cl)ccc1-n1cccc(Cl)c1=O [Example 4, N-[4-(3-Chloro-2-oxopyridin-1(2H)-yl)-3-sulfamoylphenyl]-2-(2-chlorophenyl)-acetamide]",Emax,83%
same,IC50,259 nM
"Cc1ncn(-c2ccc(NC(=O)Cc3ccccc3Cl)cc2S(N)(=O)=O)n1 [Example 5, 2-(2-Chlorophenyl)-N-[4-(3-methyl-1H-1,2,4-triazol-1-yl)-3-sulfamoylphenyl]-acetamide]",Emax,91%
same,IC50,249 nM
"Cc1ncnn1-c1ccc(NC(=O)Cc2ccccc2Cl)cc1S(N)(=O)=O [Example 6, 2-(2-Chlorophenyl)-N-[4-(5-methyl-1H-1,2,4-triazol-1-yl)-3-sulfamoylphenyl]-acetamide]",Emax,84%
same,IC50,1070 nM
"NS(=O)(=O)c1cc(NC(=O)Cc2ccccc2Cl)ccc1-n1cnc(C(F)(F)F)n1 [Example 7, 2-(2-Chlorophenyl)-N-{3-sulfamoyl-4-[3-(trifluoromethyl)-1H-1,2,4-triazol-1-yl]-phenyl}acetamide]",Emax,73%
same,IC50,3080 nM
"Cc1nc(C(F)(F)F)nn1-c1ccc(NC(=O)Cc2ccccc2Cl)cc1S(N)(=O)=O [Example 8, 2-(2-Chlorophenyl)-N-{4-[5-methyl-3-(trifluoromethyl)-1H-1,2,4-triazol-1-yl]-3-sulfamoylphenyl}acetamide]",Emax,79%
same,IC50,2560 nM
"NS(=O)(=O)c1cc(NC(=O)Cc2ccccc2Cl)ccc1-n1ccnc1 [Example 9, 2-(2-Chlorophenyl)-N-[4-(1H-imidazol-1-yl)-3-sulfamoylphenyl]acetamide]",Emax,83%
same,IC50,7 nM
"NS(=O)(=O)c1cc(NC(=O)Cc2ccccc2Cl)ccc1-n1cnc(C(F)(F)F)c1 [Example 10, 2-(2-Chlorophenyl)-N-{3-sulfamoyl-4-[4-(trifluoromethyl)-1H-imidazol-1-yl]phenyl}-acetamide]",Emax,81%
same,IC50,7 nM
"NS(=O)(=O)c1cc(NC(=O)Cc2ccccc2Cl)ccc1-n1ccc(C(F)(F)F)n1 [Example 11, 2-(2-Chlorophenyl)-N-{3-sulfamoyl-4-[3-(trifluoromethyl)-1H-pyrazol-1-yl]phenyl}-acetamide]",Emax,31%
same,IC50,> 25000 nM
"NS(=O)(=O)c1cc(NC(=O)Cc2ccccc2Cl)ccc1-n1ccc(C(F)F)n1 [Example 12, 2-(2-Chlorophenyl)-N-{4-[3-(difluoromethyl)-1H-pyrazol-1-yl]-3-sulfamoyl-phenyl}acetamide]",Emax,34%
same,IC50,> 25000 nM
"NS(=O)(=O)c1cc(NC(=O)Cc2ccccc2Cl)ccc1-n1nc(C(F)F)cc1C1CC1 [Example 13, 2-(2-Chlorophenyl)-N-{4-[5-cyclopropyl-3-(difluoromethyl)-1H-pyrazol-1-yl]-3-sulfamoylphenyl}acetamide]",Emax,100%
same,IC50,514 nM
"Cc1cn(-c2ccc(NC(=O)Cc3ccccc3Cl)cc2S(N)(=O)=O)nc1C(F)(F)F [Example 14, 2-(2-Chlorophenyl)-N-{4-[4-methyl-3-(trifluoromethyl)-1H-pyrazol-1-yl]-3-sulfamoylphenyl}acetamide]",Emax,26%
same,IC50,> 25000 nM
"Cc1cc(C(F)(F)F)nn1-c1ccc(NC(=O)Cc2ccccc2Cl)cc1S(N)(=O)=O [Example 15, 2-(2-Chlorophenyl)-N-{4-[5-methyl-3-(trifluoromethyl)-1H-pyrazol-1-yl]-3-sulfamoylphenyl}acetamide]",Emax,99%
same,IC50,379 nM
"NS(=O)(=O)c1cc(NC(=O)Cc2ccccc2Cl)ccc1-n1cncn1 [Example 16, 2-(2-Chlorophenyl)-N-[3-sulfamoyl-4-(1H-1,2,4-triazol-1-yl)phenyl]acetamide]",Emax,89%
same,IC50,262 nM
"NS(=O)(=O)c1cc(NC(=O)Cc2ccccc2Cl)ccc1-n1cnc(C(F)F)n1 [Example 17, 2-(2-Chlorophenyl)-N-{4-[3-(difluoromethyl)-1H-1,2,4-triazol-1-yl]-3-sulfamoyl-phenyl}acetamide]",Emax,89%
same,IC50,288 nM
"NS(=O)(=O)c1cc(NC(=O)Cc2ccccc2F)ccc1-n1cnc(C(F)F)n1 [Example 18, N-{4-[3-(Difluoromethyl)-1H-1,2,4-triazol-1-yl]-3-sulfamoylphenyl}-2-(2-fluoro-phenyl)acetamide]",Emax,66%
same,IC50,4700 nM
"NS(=O)(=O)c1cc(NC(=O)Cc2ccccc2F)ccc1-n1cc(C(F)(F)F)cn1 [Example 20, 2-(2-Fluorophenyl)-N-{3-sulfamoyl-4-[4-(trifluoromethyl)-1H-pyrazol-1-yl]phenyl}-acetamide]",Emax,67%
"NS(=O)(=O)c1cc(NC(=O)Cc2ccccc2C(F)F)ccc1-n1cc(C(F)(F)F)cn1 [Example 21, 2-[2-(Difluoromethyl)phenyl]-N-{3-sulfamoyl-4-[4-(trifluoromethyl)-1H-pyrazol-1-yl]phenyl}acetamide]",Emax,67%
same,IC50,170 nM
"NS(=O)(=O)c1cc(NC(=O)Cc2ccccc2C(F)(F)F)ccc1-n1cc(C(F)(F)F)cn1 [Example 22, N-{3-Sulfamoyl-4-[4-(trifluoromethyl)-1H-pyrazol-1-yl]phenyl}-2-[2-(trifluoromethyl)-phenyl]acetamide]",Emax,76%
same,IC50,224 nM
"CC(C)(C)c1ncn(-c2ccc(NC(=O)Cc3ccccc3Cl)cc2S(N)(=O)=O)n1 [Example 23, N-[4-(3-tert-Butyl-1H-1,2,4-triazol-1-yl)-3-sulfamoylphenyl]-2-(2-chlorophenyl)-acetamide]",Emax,89%
same,IC50,1180 nM
"NS(=O)(=O)c1cc(NC(=O)Cc2ccccc2Cl)ccc1-n1cc(Cl)cn1 [Example 25, 2-(2-Chlorophenyl)-N-[4-(4-chloro-1H-pyrazol-1-yl)-3-sulfamoylphenyl]acetamide]",Emax,93%
